Test results as given in patent publication US6455561B1, “Heterocyclic compounds and their therapeutic use” (Darwin Discovery, Ltd., priority 2000, dated 2002).

Test system: eosinophilia
Experiment: Guinea pig lung model (inhibition of eosinophilia)
Assay type: in vivo
Conditions: dosed at 3 mg/kg
Description: Activity in a guinea pig lung model is measured using the procedures described by Mauser et al, Am. Rev. Respir. Dis. 148:1623 (1993), and Am. J. Respir. Crit. Care Med. 152:467 (1995).

With `COCc1cc2c(C(=O)Nc3c(C)noc3C)ccc(OC)c2o1` [Example 10, 7-Methoxy-2-methoxymethylbenzofuran-4-carboxylic Acid (3,5-dimethylisoxazol-4-yl)-amide] the inhibition of eosinophilia was 35%.
